Read-outs that look alike come from different tables or passages of the source.

The results in this text go back to US20240269139A1, “COMPOUNDS FOR TARGETED PROTEIN DEGRADATION OF KINASES” (DANA-FARBER CANCER INSTITUTE, INC., priority 2020, published 2024).

Type in all cases: cell-based
Assay [1] concerns the target T1, protein kinases (human kinome) (Homo sapiens, UniProt O14976).
T1 sequence (O14976 1-1311): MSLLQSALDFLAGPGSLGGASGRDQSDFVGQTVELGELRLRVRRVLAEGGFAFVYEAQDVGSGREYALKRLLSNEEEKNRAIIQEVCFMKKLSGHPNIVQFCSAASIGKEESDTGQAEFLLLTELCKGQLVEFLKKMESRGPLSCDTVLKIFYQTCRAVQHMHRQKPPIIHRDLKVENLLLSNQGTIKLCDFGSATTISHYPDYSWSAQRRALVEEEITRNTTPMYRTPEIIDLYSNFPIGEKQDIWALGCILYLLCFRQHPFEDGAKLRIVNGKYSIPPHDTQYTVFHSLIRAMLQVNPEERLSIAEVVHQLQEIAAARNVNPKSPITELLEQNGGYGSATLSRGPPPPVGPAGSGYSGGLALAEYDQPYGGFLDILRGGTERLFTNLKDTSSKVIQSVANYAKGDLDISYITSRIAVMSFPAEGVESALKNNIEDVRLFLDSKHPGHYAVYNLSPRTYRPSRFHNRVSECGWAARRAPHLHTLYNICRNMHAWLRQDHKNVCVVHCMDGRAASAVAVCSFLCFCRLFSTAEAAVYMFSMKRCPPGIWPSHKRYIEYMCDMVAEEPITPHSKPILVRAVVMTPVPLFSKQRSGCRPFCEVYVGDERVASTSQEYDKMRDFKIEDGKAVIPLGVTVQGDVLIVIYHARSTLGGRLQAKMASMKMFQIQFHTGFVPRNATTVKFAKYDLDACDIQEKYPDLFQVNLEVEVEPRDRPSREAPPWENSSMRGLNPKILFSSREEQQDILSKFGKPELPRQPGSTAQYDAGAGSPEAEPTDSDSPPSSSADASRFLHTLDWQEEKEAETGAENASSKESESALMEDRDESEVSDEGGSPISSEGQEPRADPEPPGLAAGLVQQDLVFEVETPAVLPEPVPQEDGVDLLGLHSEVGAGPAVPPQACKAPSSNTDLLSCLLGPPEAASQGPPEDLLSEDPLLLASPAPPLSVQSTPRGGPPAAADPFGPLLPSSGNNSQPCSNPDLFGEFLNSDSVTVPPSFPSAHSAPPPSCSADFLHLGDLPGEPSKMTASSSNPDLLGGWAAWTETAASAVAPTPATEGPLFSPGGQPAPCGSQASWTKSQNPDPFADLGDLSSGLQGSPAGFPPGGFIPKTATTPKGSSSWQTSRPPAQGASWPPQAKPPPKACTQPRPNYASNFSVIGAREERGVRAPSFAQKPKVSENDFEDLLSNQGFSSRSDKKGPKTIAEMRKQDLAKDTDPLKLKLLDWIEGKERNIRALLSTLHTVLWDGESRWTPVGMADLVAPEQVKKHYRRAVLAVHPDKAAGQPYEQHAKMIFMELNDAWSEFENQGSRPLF

In assay [2] the target is protein kinases (human kinome) (Homo sapiens, UniProt Q00534). The following applies: for logFC CDK6: CDK6 (Q00534), direction down; for logFC of CDK6 (Q00534): down.
Assay [3] addresses protein kinases (human kinome) (Homo sapiens, UniProt Q9H0K1). The following applies: for logFC of SIK2: Accession Q9H0K1; for logFC SIK2: SIK2 (Q9H0K1), down; for logFC SIK2 (Q9H0K1): direction of change down.
Assay [4] addresses T2, protein kinases (human kinome) (Homo sapiens, UniProt Q9NYY8).
T2 sequence (Q9NYY8 1-710): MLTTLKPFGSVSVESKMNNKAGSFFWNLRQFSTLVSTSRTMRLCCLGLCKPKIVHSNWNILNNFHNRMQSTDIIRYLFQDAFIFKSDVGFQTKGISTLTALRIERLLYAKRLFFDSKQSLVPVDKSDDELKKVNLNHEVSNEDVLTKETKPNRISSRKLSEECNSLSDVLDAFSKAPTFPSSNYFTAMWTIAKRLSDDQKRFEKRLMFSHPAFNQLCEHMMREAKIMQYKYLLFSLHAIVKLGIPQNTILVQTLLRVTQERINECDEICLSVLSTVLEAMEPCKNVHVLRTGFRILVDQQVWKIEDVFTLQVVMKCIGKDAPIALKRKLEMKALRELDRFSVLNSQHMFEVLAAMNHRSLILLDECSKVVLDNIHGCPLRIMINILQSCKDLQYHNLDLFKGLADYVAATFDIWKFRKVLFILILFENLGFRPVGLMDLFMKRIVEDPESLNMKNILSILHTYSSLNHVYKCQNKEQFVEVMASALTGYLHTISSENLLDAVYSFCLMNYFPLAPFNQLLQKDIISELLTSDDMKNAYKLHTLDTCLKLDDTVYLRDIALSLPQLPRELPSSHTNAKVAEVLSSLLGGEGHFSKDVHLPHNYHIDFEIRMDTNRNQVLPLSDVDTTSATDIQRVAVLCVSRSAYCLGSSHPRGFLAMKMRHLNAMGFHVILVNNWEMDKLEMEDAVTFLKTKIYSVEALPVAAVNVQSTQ
The following applies: direction down.

The target of assay [5] is protein kinases (human kinome) (Homo sapiens, UniProt P51451). Particulars: for logFC of BLK (P51451): down; for logFC BLK: BLK (P51451), direction down, experiment wp168.
[6] abbreviates: GAK (O14976), direction down, experiment wp045.
Setting [7] is: GAK (O14976), direction down, experiment wp117.
[8] abbreviates: GAK (O14976), experiment wp168, down.

Chain of protein kinases (human kinome) (Homo sapiens, UniProt P51451) (P51451 whole entry): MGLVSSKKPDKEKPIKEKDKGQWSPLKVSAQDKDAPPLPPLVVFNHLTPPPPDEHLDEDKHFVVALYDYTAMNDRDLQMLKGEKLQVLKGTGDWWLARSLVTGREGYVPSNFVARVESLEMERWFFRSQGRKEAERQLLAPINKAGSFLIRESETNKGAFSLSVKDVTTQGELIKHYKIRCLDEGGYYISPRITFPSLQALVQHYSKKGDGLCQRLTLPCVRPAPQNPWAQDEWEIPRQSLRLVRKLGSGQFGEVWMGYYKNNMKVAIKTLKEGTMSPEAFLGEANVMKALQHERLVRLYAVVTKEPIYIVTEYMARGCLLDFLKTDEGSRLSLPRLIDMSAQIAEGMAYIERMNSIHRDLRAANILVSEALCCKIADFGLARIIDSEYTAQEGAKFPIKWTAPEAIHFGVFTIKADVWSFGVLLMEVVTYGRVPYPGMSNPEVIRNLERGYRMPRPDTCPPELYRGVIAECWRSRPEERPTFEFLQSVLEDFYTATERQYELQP
Chain of protein kinases (human kinome) (Homo sapiens, UniProt Q9H0K1) (Q9H0K1 whole entry): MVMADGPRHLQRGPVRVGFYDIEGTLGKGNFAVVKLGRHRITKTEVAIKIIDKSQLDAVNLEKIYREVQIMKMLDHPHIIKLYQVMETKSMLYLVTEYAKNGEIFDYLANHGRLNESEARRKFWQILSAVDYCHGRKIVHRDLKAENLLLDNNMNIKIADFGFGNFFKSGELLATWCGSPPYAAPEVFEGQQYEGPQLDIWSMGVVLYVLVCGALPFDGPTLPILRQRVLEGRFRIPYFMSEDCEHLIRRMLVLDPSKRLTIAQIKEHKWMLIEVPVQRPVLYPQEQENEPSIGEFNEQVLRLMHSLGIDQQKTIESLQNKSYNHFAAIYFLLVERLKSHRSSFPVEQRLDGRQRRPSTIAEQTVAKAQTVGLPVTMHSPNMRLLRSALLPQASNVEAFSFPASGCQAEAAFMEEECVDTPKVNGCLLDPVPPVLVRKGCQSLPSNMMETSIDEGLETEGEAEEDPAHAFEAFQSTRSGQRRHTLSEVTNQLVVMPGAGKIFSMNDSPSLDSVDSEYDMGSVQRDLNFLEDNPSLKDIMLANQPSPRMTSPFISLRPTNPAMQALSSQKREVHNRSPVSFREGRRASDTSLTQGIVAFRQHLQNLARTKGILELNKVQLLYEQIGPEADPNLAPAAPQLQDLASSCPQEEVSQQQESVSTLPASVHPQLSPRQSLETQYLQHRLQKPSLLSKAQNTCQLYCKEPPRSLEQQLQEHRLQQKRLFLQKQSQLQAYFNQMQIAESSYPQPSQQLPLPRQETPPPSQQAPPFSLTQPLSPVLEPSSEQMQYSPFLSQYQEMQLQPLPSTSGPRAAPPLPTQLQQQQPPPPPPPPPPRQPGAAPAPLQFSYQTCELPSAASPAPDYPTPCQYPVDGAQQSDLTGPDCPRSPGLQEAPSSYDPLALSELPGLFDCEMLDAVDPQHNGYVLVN
Chain of protein kinases (human kinome) (Homo sapiens, UniProt Q00534) (Q00534 whole entry): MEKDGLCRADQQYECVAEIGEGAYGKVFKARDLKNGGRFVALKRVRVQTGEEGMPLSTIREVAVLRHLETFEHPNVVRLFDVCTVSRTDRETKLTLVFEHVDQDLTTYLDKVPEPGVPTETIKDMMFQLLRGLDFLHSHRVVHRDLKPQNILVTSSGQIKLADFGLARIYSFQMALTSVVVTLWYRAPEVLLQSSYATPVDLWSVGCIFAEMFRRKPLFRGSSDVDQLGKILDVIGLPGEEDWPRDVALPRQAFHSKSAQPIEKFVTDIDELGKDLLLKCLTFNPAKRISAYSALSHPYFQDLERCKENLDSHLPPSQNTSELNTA

On to `CS(=O)(=O)Nc1cccc(-c2csc3cnc(Nc4ccc(N5CCN(CCCCCOc6cccc7c6C(=O)N(C6CCC(=O)NC6=O)C7=O)CC5)cc4)nc23)c1` (stereo not drawn) [DB0614, N-(3-(2-((4-(4-(5-((2-(2,6-Dioxopiperidin-3-yl)-1,3-dioxoisoindolin-4-yl)oxy)pentyl)piperazin-1-yl)phenyl)amino)thieno[3,2-d]pyrimidin-7-yl)phenyl)methanesulfonamide], for which the “logFC of GAK (O14976)” value in assay [1] (Experiment wp045, down) was −0.3305; in assay [1] (Experiment wp117, down), −0.4196. Also, the “logFC GAK” value in assay [1] (setting [6]) is reported as −0.3305; in assay [1] (setting [7]) it was −0.4196. Besides, the “logFC CDK6” value in assay [2] (experiment wp045) is −2.265; in assay [2] (experiment wp117), −2.079. Also, the “logFC of CDK6 (Q00534)” value is recorded as −2.265 in assay [2] (Experiment wp045) and −2.079 in assay [2] (Experiment wp117). Further, the “logFC of SIK2” value in assay [3] (experiment wp045) was −0.5292; in assay [3] (experiment wp117) it was −0.3766. The “logFC SIK2” value in assay [3] (experiment wp045) is on record as −0.5292. In assay [3] (experiment wp117), the “logFC SIK2 (Q9H0K1)” value is −0.3766.
Take `C=CCn1c(=O)c2cnc(Nc3ccc(N4CCN(CCCNc5cccc6c5C(=O)N(C5CCC(=O)NC5=O)C6=O)CC4)cc3)nc2n1-c1cccc(C(C)(C)O)n1` (stereo not drawn) [ZNL.02.096]: in assay [4] (Experiment wp118), the “logFC FASTKD2 (Q9NYY8)” value is −0.4605.
For `Cc1ccc(NC(=O)c2cccc(C(F)(F)F)c2)cc1N1Cc2cnc(Nc3ccc(N4CCN(CCCCCCOc5cccc6c5C(=O)N(C5CCC(=O)NC5=O)C6=O)CC4)nc3)nc2N(C)C1=O` (stereo not drawn) [DB0663], the “logFC of GAK (O14976)” value in assay [1] (Experiment wp045, down) is −0.691. Also, the “logFC GAK” value in assay [1] (setting [6]) was −0.691. Also, in assay [5] (BLK P51451, experiment wp045), the “logFC of BLK” value was −1.058. For the same molecule, the “logFC of BLK (P51451)” value in assay [5] (Experiment wp045) was −1.058. For the same molecule, in assay [3] (experiment wp045), the “logFC of SIK2” value is listed as −0.4765 and the “logFC SIK2” value is reported as −0.4765.
On to `O=C(COc1cccc2c1C(=O)N(C1CCC(=O)NC1=O)C2=O)NCCCCCCCC(=O)NC1(c2ccc(-c3nc4ccn5c(=O)[nH]nc5c4cc3-c3ccccc3)cc2)CCC1` (stereo not drawn) [INY.01.140.1], for which the “logFC FASTKD2 (Q9NYY8)” value in assay [4] (Experiment wp081) is −0.4053.
As to `Cc1ncsc1-c1ccc([C@H](C)NC(=O)[C@@H]2C[C@@H](O)CN2C(=O)[C@@H](NC(=O)CCCCCN2CCN(c3ccc(Nc4ncc5scc(-c6cccc(NS(C)(=O)=O)c6)c5n4)cc3)CC2)C(C)(C)C)cc1` [RSS0680, (2S,4R)-1-((S)-3,3-Dimethyl-2-(6-(4-(4-((7-(3-(methylsulfonamido)phenyl)thieno[3,2-d]pyrimidin-2-yl)amino)phenyl)piperazin-1-yl)hexanamido)butanoyl)-4-hydroxy-N—((S)-1-(4-(4-methylthiazol-5yl)phenyl)ethyl)pyrrolidine-2-carboxamide], the “logFC of GAK (O14976)” value in assay [1] (Experiment wp080, down) is recorded as −0.7773; in assay [1] (Experiment wp117, down), −0.6853. For the same molecule, the “logFC GAK” value is recorded as −0.7773 in assay [1] (GAK (O14976), direction down, experiment wp080) and −0.6853 in assay [1] (setting [7]). Also, the “logFC CDK6” value in assay [2] (experiment wp080) was −2.17; in assay [2] (experiment wp117) it was −2.169. The “logFC of CDK6 (Q00534)” value in assay [2] (Experiment wp080) is recorded as −2.17; in assay [2] (Experiment wp117), −2.169. Moreover, the results for the “logFC of SIK2” value in assay [3] (experiment wp080) and in assay [3] (experiment wp117) were −0.6986 and −0.7184, respectively. Further, in assay [3] (experiment wp080), the “logFC SIK2” value is −0.6986. Also, the “logFC SIK2 (Q9H0K1)” value in assay [3] (experiment wp117) is on record as −0.7184.
Regarding `Cc1ncsc1-c1ccc([C@H](C)NC(=O)[C@@H]2C[C@@H](O)CN2C(=O)[C@@H](NC(=O)CCOCCOCCN2CCN(c3ccc(Nc4ncc(Cl)c(Nc5ccccc5S(=O)(=O)C(C)C)n4)cc3)CC2)C(C)(C)C)cc1` [FMF.06.098.1], the “logFC of GAK (O14976)” value is reported as −0.4156 in assay [1] (Experiment wp108, down) and −0.3469 in assay [1] (Experiment wp131, down). Also, the “logFC GAK” value is recorded as −0.4156 in assay [1] (GAK (O14976), direction down, experiment wp108) and −0.3469 in assay [1] (GAK (O14976), direction down, experiment wp131). In addition, the entries for the “logFC CDK6” value in assay [2] (experiment wp108) and in assay [2] (experiment wp131) were −0.3588 and −0.5377, respectively. Besides, the “logFC of CDK6 (Q00534)” value is on record as −0.3588 in assay [2] (Experiment wp108) and −0.5377 in assay [2] (Experiment wp131). The results for the “logFC of SIK2” value in assay [3] (experiment wp114) and in assay [3] (experiment wp131) were −0.4985 and −0.602, respectively. Further, the “logFC SIK2 (Q9H0K1)” value in assay [3] (Experiment wp114) is −0.4985; in assay [3] (experiment wp131), −0.602.
Regarding `C[C@@H]1C[C@@H](O)c2ncnc(N3CCN(C(=O)[C@H](CNCCCCCCCCCCc4cccc5c4C(=O)N(C4CCC(=O)NC4=O)C5=O)c4ccc(Cl)cc4)CC3)c21` (stereo partly drawn) [INY.03.041.01], the “logFC FASTKD2 (Q9NYY8)” value in assay [4] (Experiment wp118) was −0.4539.
As for `Cc1ccc(NC(=O)c2cccc(C(F)(F)F)c2)cc1N1Cc2cnc(Nc3ccc(N4CCN(CCCCC(=O)N[C@H](C(=O)N5C[C@H](O)C[C@H]5C(=O)N[C@@H](C)c5ccc(-c6scnc6C)cc5)C(C)(C)C)CC4)nc3)nc2N(C)C1=O` [DB1113], the “logFC GAK” value in assay [1] (setting [8]) was −1.029. The “logFC GAK” value in assay [1] (GAK, accession O14976, experiment wp168, direction of change down) is on record as −1.029. Also, the “logFC BLK” value in assay [5] is reported as −1.32. For the same molecule, the “logFC of BLK (P51451)” value in assay [5] (Experiment wp168) is recorded as −1.32. Besides, in assay [3] (experiment wp168), the “logFC of SIK2” value is recorded as −0.7296 and the “logFC SIK2 (Q9H0K1)” value is −0.7296.
Take `Cc1ccc(NC(=O)c2cccc(C(F)(F)F)c2)cc1N1Cc2cnc(Nc3ccc(N4CCN(CCCOc5cccc6c5C(=O)N(C5CCC(=O)NC5=O)C6=O)CC4)nc3)nc2N(C)C1=O` (stereo not drawn) [DB0662]: the “logFC GAK” value in assay [1] (GAK (O14976), direction down, experiment wp168) is reported as −0.4373. In assay [1] (setting [8]), the “logFC GAK” value is −0.4373. Besides, the “logFC BLK” value in assay [5] was −1.652. Also, the “logFC of BLK (P51451)” value in assay [5] (Experiment wp168) is −1.652. Moreover, in assay [3] (experiment wp168), the “logFC of SIK2” value is reported as −0.777 and the “logFC SIK2 (Q9H0K1)” value was −0.777.
`CC(C)(C)c1nc(-c2cccc(NS(=O)(=O)c3c(F)cccc3F)c2F)c(-c2ccnc(NCCOCCNC(=O)CCOCCOCCNc3cccc4c3CN(C3CCC(=O)NC3=O)C4=O)n2)s1` (stereo not drawn) [DD.03.107]: the “logFC FASTKD2 (Q9NYY8)” value in assay [4] (Experiment wp147, 1 uM) is on record as −0.7236; in assay [4] (Experiment wp147, 2 uM), −0.6784; in assay [4] (Experiment wp147, 4 uM), −1.273.
